Results taken from patent publication US20250171438A1 (Agios Pharmaceuticals, Inc., priority 2022, published 2025).

These compounds were tested against T1, human PAH with the R408W mutation (Homo sapiens, UniProt P00439, R408W) (assay: Cell Based Phenylalanine Flux Assay). Conditions: A375 cells expressing human R408W PAH; 24 hrs with compound; 13C-Tyrosine by LC-MS; average where tested multiple times; read-out: AC50.
T1 construct: expressed in transfected cells
T1 sequence (P00439 1-452 R408W): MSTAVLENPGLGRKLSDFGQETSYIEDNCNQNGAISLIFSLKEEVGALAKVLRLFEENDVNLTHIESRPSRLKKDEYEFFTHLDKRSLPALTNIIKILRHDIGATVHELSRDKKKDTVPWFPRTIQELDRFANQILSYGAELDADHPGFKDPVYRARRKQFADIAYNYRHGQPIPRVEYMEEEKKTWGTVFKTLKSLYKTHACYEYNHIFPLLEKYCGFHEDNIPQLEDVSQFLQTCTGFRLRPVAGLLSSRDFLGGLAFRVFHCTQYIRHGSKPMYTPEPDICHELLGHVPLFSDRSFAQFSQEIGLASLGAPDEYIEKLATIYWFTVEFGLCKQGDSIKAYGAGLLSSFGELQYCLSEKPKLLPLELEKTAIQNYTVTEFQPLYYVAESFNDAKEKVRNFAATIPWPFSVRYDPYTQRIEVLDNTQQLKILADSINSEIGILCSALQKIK

AC50 [µM] | Compound
> 5 | Cn1cc(-c2cnc(CC(=O)N3CCc4[nH]cnc4C3c3nc4ccccc4s3)s2)cn1 (stereo not shown) [listing 1 of 2 here]
> 5 | O=C(Cc1ncc(-c2ccccc2)s1)N1CCc2[nH]cnc2C1c1nc2ccccc2s1 (stereo not shown) [listing 1 of 2 here]
> 5 | Cc1nnc(CC(=O)N2CCc3[nH]cnc3C2c2nc3ccccc3s2)s1 (stereo not shown)
> 5 | O=C(Cc1nncs1)N1CCc2[nH]cnc2C1c1nc2c(F)cccc2s1 (stereo not shown)
> 5 | O=C(Cc1nc(C(F)(F)F)cs1)N1CCc2[nH]cnc2C1c1nc2c(F)cccc2s1 (stereo not shown) [listing 1 of 2 here]
> 5 | O=C(CCc1nccs1)N1CCc2nc[nH]c2C1c1nc2cc(Br)ccc2s1 (stereo not shown) [listing 1 of 2 here]
> 5 | O=C(Cc1nccs1)N1CCc2[nH]cnc2C1c1nc2ccc(Br)cc2s1 (stereo not shown) [listing 1 of 2 here]
> 5 | O=C(Cc1nc(C(F)(F)F)cs1)N1CCc2[nH]cnc2C1c1nc2ccc(F)cc2s1 (stereo not shown) [listing 1 of 2 here]
> 5 | O=C(Cc1nccs1)N1CCc2[nH]cnc2C1c1nc2ccc(F)cc2s1 (stereo not shown) [listing 1 of 2 here]
> 5 | O=C(Cc1nccs1)N1CCc2[nH]cnc2C1c1nc2cccc(F)c2s1 (stereo not shown) [listing 1 of 2 here]
> 5 | c1ccc2oc(N3CCc4[nH]cnc4C3c3nc4ccccc4s3)nc2c1 (stereo not shown) [listing 1 of 2 here]
> 5 | O=C(c1nc2ccccc2s1)N1CCc2[nH]cnc2C1c1nc2cccc(F)c2s1 (stereo not shown) [listing 1 of 2 here]
> 5 | Cc1ncc(C(=O)N2CCc3[nH]cnc3C2c2nc3ccccc3s2)o1 (stereo not shown) [listing 1 of 2 here]
> 5 | Cc1ncc(C(=O)N2CCc3[nH]cnc3C2c2nc3ccccc3s2)s1 (stereo not shown) [listing 1 of 2 here]
> 5 | Cc1ncsc1C(=O)N1CCc2[nH]cnc2C1c1nc2ccccc2s1 (stereo not shown) [listing 1 of 2 here]
> 5 | O=C(c1ncc(Cl)s1)N1CCc2[nH]cnc2C1c1nc2ccc(F)cc2s1 (stereo not shown) [listing 1 of 2 here]
> 5 | Cc1nnc(N2CCc3[nH]cnc3C2c2nc3ccccc3s2)o1 (stereo not shown)
> 5 | O=C(c1cnn2cc(CCc3ccccc3)ccc12)N1CCc2[nH]cnc2C1c1nc2ccccc2s1 (stereo not shown) [listing 1 of 2 here]
> 5 | O=C(c1cnn2cc(Cc3ccccc3)ccc12)N1CCc2[nH]cnc2C1c1nc2ccccc2s1 (stereo not shown) [listing 1 of 2 here]
> 5 | O=C(c1cnn2cc(Br)ccc12)N1CCc2[nH]cnc2C1c1nc2ccc(F)cc2s1 (stereo not shown) [listing 1 of 2 here]
> 5 | O=C(c1cnn2cc(Cl)ccc12)N1CCc2[nH]cnc2C1c1nc2ccc(F)cc2s1 (stereo not shown) [listing 1 of 2 here]
> 5 | O=C(c1cnn2cc(Cl)ccc12)N1CCc2nc[nH]c2C1c1nc2cc(F)ccc2s1 (stereo not shown) [listing 1 of 2 here]
> 5 | O=C(C1CC1F)N1CCc2[nH]cnc2C1c1nc2ccccc2s1 (stereo not shown) [listing 1 of 4 here]
> 5 | O=C(C1CC1F)N1CCc2[nH]cnc2C1c1nc2ccccc2s1 (stereo not shown) [listing 2 of 4 here]
> 5 | c1ccc2sc(C3c4nc[nH]c4CCN3CC3CC3)nc2c1 (stereo not shown)

AC50 [µM] | Compound
> 5 | O=C(c1cc2ccccn2n1)N1CCc2nc[nH]c2C1c1nc2ccccc2s1 (stereo not shown) [listing 1 of 2 here]
> 5 | O=C(C1CC1)N1CCc2[nH]cnc2C1c1nc2ccc(F)cc2s1 (stereo not shown) [listing 1 of 2 here]
> 5 | O=C(C1CC1)N1CCc2[nH]cnc2C1c1nc2cc(F)ccc2s1 (stereo not shown) [listing 1 of 2 here]
> 5 | O=C(c1cnn2cccc(F)c12)N1CCc2[nH]cnc2C1c1nc2c(F)cccc2s1 (stereo not shown) [listing 1 of 2 here]
> 5 | O=C(c1cnn2cccc(F)c12)N1CCc2[nH]cnc2C1c1nc2cc(F)ccc2s1 (stereo not shown)
> 5 | O=C(c1cnn2ccccc12)N1CCc2[nH]cnc2C1c1nc2ccc(Br)cc2s1 (stereo not shown) [listing 1 of 2 here]
> 5 | O=C(C1CC1)N1CCc2[nH]cnc2C1c1nc2ccc(Br)cc2s1 (stereo not shown) [listing 1 of 2 here]
> 5 | O=C(c1nccs1)N1CCc2[nH]cnc2C1c1nc2ccc(Cl)cc2s1 (stereo not shown)
> 5 | O=C(c1cnn2ccccc12)N1CCc2[nH]cnc2C1c1nc2ccc(Cl)cc2s1 (stereo not shown)
> 5 | O=C(c1n[nH]c2ccccc12)N1CCc2[nH]cnc2C1c1nc2ccc(F)cc2s1 (stereo not shown) [listing 1 of 2 here]
> 5 | O=C(c1cnco1)N1CCc2[nH]cnc2C1c1nc2ccc(F)cc2s1 (stereo not shown) [listing 1 of 2 here]
> 5 | O=C(c1cncs1)N1CCc2[nH]cnc2C1c1nc2ccc(F)cc2s1 (stereo not shown) [listing 1 of 2 here]
> 5 | O=C(c1nncs1)N1CCc2[nH]cnc2C1c1nc2ccc(F)cc2s1 (stereo not shown) [listing 1 of 2 here]
> 5 | O=C(c1cnn2cccc(F)c12)N1CCc2[nH]cnc2C1c1nc2ccc(F)cc2s1 (stereo not shown) [listing 1 of 2 here]
1 to 5 | COc1ccn2ncc(C(=O)N3CCc4[nH]cnc4C3c3nc4ccc(F)cc4s3)c2c1 (stereo not shown)
> 5 | Cc1nnc(C(=O)N2CCc3[nH]cnc3C2c2nc3ccc(F)cc3s2)s1 (stereo not shown) [listing 1 of 2 here]
> 5 | Cc1ccc2c(C(=O)N3CCc4[nH]cnc4C3c3nc4ccc(F)cc4s3)cnn2c1 (stereo not shown) [listing 1 of 2 here]
1 to 5 | Cn1cc(-c2cnc(CC(=O)N3CCc4[nH]cnc4C3c3nc4ccccc4s3)s2)cn1 (stereo not shown) [listing 2 of 2 here]
1 to 5 | O=C(Cc1ncc(-c2ccccc2)s1)N1CCc2[nH]cnc2C1c1nc2ccccc2s1 (stereo not shown) [listing 2 of 2 here]
1 to 5 | O=C(Cc1nc(C(F)(F)F)cs1)N1CCc2[nH]cnc2C1c1nc2c(F)cccc2s1 (stereo not shown) [listing 2 of 2 here]
1 to 5 | Cc1nnc(CC(=O)N2CCc3[nH]cnc3C2c2nc3c(F)cccc3s2)s1 (stereo not shown)
1 to 5 | O=C(CCc1nccs1)N1CCc2nc[nH]c2C1c1nc2cc(Br)ccc2s1 (stereo not shown) [listing 2 of 2 here]
1 to 5 | O=C(CCc1nccs1)N1CCc2nc[nH]c2C1c1nc2cc(Cl)ccc2s1 (stereo not shown)
1 to 5 | O=C(Cc1nc(C(F)(F)F)cs1)N1CCc2[nH]cnc2C1c1nc2cc(F)ccc2s1 (stereo not shown)
1 to 5 | O=C(Cc1nccs1)N1CCc2[nH]cnc2C1c1nc2ccc(Br)cc2s1 (stereo not shown) [listing 2 of 2 here]

AC50 [µM] | Compound
1 to 5 | O=C(Cc1nc(C(F)(F)F)cs1)N1CCc2[nH]cnc2C1c1nc2ccc(F)cc2s1 (stereo not shown) [listing 2 of 2 here]
1 to 5 | O=C(Cc1nccs1)N1CCc2[nH]cnc2C1c1nc2ccc(F)cc2s1 (stereo not shown) [listing 2 of 2 here]
> 5 | Cc1nnc(CC(=O)N2CCc3[nH]cnc3C2c2nc3ccc(F)cc3s2)s1 (stereo not shown)
> 5 | O=C(Cc1nncs1)N1CCc2[nH]cnc2C1c1nc2ccc(F)cc2s1 (stereo not shown)
1 to 5 | O=C(Cc1nccs1)N1CCc2[nH]cnc2C1c1nc2cccc(F)c2s1 (stereo not shown) [listing 2 of 2 here]
1 to 5 | c1ccc2oc(N3CCc4[nH]cnc4C3c3nc4ccccc4s3)nc2c1 (stereo not shown) [listing 2 of 2 here]
> 5 | O=C(c1nc2ccccc2s1)N1CCc2nc[nH]c2C1c1nc2ccc(Br)cc2s1 (stereo not shown)
1 to 5 | O=C(c1nc2ccccc2s1)N1CCc2[nH]cnc2C1c1nc2cccc(F)c2s1 (stereo not shown) [listing 2 of 2 here]
1 to 5 | O=C(c1cnc(COc2ccccc2)s1)N1CCc2[nH]cnc2C1c1nc2ccccc2s1 (stereo not shown)
> 5 | O=C(c1cnc(Br)s1)N1CCc2[nH]cnc2C1c1nc2ccccc2s1 (stereo not shown)
1 to 5 | Cc1ncc(C(=O)N2CCc3[nH]cnc3C2c2nc3ccccc3s2)o1 (stereo not shown) [listing 2 of 2 here]
1 to 5 | Cc1ncc(C(=O)N2CCc3[nH]cnc3C2c2nc3ccccc3s2)s1 (stereo not shown) [listing 2 of 2 here]
1 to 5 | Cc1ncsc1C(=O)N1CCc2[nH]cnc2C1c1nc2ccccc2s1 (stereo not shown) [listing 2 of 2 here]
1 to 5 | O=C(c1ncc(Cl)s1)N1CCc2[nH]cnc2C1c1nc2cccc(F)c2s1 (stereo not shown)
1 to 5 | O=C(c1ncc(Cl)s1)N1CCc2[nH]cnc2C1c1nc2ccc(F)cc2s1 (stereo not shown) [listing 2 of 2 here]
1 to 5 | O=C(c1cnn2cc(CCc3ccccc3)ccc12)N1CCc2[nH]cnc2C1c1nc2ccccc2s1 (stereo not shown) [listing 2 of 2 here]
> 5 | O=C(c1cnn2cc(C=Cc3ccccc3)ccc12)N1CCc2[nH]cnc2C1c1nc2ccccc2s1 (stereo not shown)
1 to 5 | O=C(c1cnn2cc(Cc3ccccc3)ccc12)N1CCc2[nH]cnc2C1c1nc2ccccc2s1 (stereo not shown) [listing 2 of 2 here]
1 to 5 | O=C(c1cnn2cc(Br)ccc12)N1CCc2[nH]cnc2C1c1nc2cc(F)ccc2s1 (stereo not shown)
1 to 5 | O=C(c1cnn2cc(Br)ccc12)N1CCc2[nH]cnc2C1c1nc2ccc(F)cc2s1 (stereo not shown) [listing 2 of 2 here]
1 to 5 | O=C(c1cnn2cc(Cl)ccc12)N1CCc2[nH]cnc2C1c1nc2ccc(F)cc2s1 (stereo not shown) [listing 2 of 2 here]
1 to 5 | O=C(c1cnn2cc(Cl)ccc12)N1CCc2nc[nH]c2C1c1nc2cc(F)ccc2s1 (stereo not shown) [listing 2 of 2 here]
1 to 5 | O=C(C1CC1F)N1CCc2[nH]cnc2C1c1nc2ccccc2s1 (stereo not shown) [listing 3 of 4 here]
1 to 5 | O=C(C1CC1F)N1CCc2[nH]cnc2C1c1nc2ccccc2s1 (stereo not shown) [listing 4 of 4 here]
1 to 5 | O=C(c1cc2ccccn2n1)N1CCc2nc[nH]c2C1c1nc2ccccc2s1 (stereo not shown) [listing 2 of 2 here]

AC50 [µM] | Compound
1 to 5 | O=C(C1CC1)N1CCc2[nH]cnc2C1c1nc2ccc(F)cc2s1 (stereo not shown) [listing 2 of 2 here]
1 to 5 | O=C(C1CC1)N1CCc2[nH]cnc2C1c1nc2cc(F)ccc2s1 (stereo not shown) [listing 2 of 2 here]
1 to 5 | O=C(c1nccs1)N1CCc2[nH]cnc2C1c1nc2c(Br)cccc2s1 (stereo not shown)
1 to 5 | O=C(c1n[nH]c2ccccc12)N1CCc2[nH]cnc2C1c1nc2c(F)cccc2s1 (stereo not shown)
1 to 5 | O=C(c1ccno1)N1CCc2nc[nH]c2C1c1nc2c(F)cccc2s1 (stereo not shown)
1 to 5 | O=C(c1cnn2cccc(F)c12)N1CCc2[nH]cnc2C1c1nc2c(F)cccc2s1 (stereo not shown) [listing 2 of 2 here]
> 5 | O=C(c1n[nH]c2ccccc12)N1CCc2[nH]cnc2C1c1nc2cc(F)ccc2s1 (stereo not shown)
> 5 | Fc1ccc2sc(CN3CCc4[nH]cnc4C3c3nc4cc(F)ccc4s3)nc2c1 (stereo not shown)
1 to 5 | O=C(c1nccs1)N1CCc2[nH]cnc2C1c1nc2ccc(Br)cc2s1 (stereo not shown)
1 to 5 | O=C(c1cnn2ccccc12)N1CCc2[nH]cnc2C1c1nc2ccc(Br)cc2s1 (stereo not shown) [listing 2 of 2 here]
1 to 5 | O=C(C1CC1)N1CCc2[nH]cnc2C1c1nc2ccc(Br)cc2s1 (stereo not shown) [listing 2 of 2 here]
1 to 5 | O=C(c1n[nH]c2ccccc12)N1CCc2[nH]cnc2C1c1nc2ccc(F)cc2s1 (stereo not shown) [listing 2 of 2 here]
1 to 5 | O=C(c1ncco1)N1CCc2[nH]cnc2C1c1nc2ccc(F)cc2s1 (stereo not shown)
1 to 5 | O=C(c1cnco1)N1CCc2[nH]cnc2C1c1nc2ccc(F)cc2s1 (stereo not shown) [listing 2 of 2 here]
1 to 5 | O=C(c1cncs1)N1CCc2[nH]cnc2C1c1nc2ccc(F)cc2s1 (stereo not shown) [listing 2 of 2 here]
1 to 5 | O=C(c1nncs1)N1CCc2[nH]cnc2C1c1nc2ccc(F)cc2s1 (stereo not shown) [listing 2 of 2 here]
1 to 5 | O=C(c1cnn2cccc(F)c12)N1CCc2[nH]cnc2C1c1nc2ccc(F)cc2s1 (stereo not shown) [listing 2 of 2 here]
1 to 5 | Cc1nnc(C(=O)N2CCc3[nH]cnc3C2c2nc3ccc(F)cc3s2)s1 (stereo not shown) [listing 2 of 2 here]
1 to 5 | Cc1ccc2c(C(=O)N3CCc4[nH]cnc4C3c3nc4ccc(F)cc4s3)cnn2c1 (stereo not shown) [listing 2 of 2 here]
1 to 5 | O=C(c1ncn2ccccc12)N1CCc2[nH]cnc2C1c1nc2ccc(F)cc2s1 (stereo not shown)
1 to 5 | O=C(c1n[nH]c2ccccc12)N1CCc2[nH]cnc2C1c1nc2cccc(F)c2s1 (stereo not shown)
1 to 5 | O=C(c1ccno1)N1CCc2[nH]cnc2C1c1nc2cccc(F)c2s1 (stereo not shown)
